In patent US11608318B2, “Solid state forms of Omecamtiv mecarbil and Omecamtiv mecarbil diHCl” (ASSIA CHEMICAL INDUSTRIES LTD., priority 2018, dated 2023):

From the text: (§1) Pharmaceutical molecules may display solid to solid phase transformations and transformations between polymorphs; which may detected by exposure of the solid state form to stress conditions of e.g., high temperature and high relative humidity.
as §1

Malonic Omecamtiv mecarbil diHCl [form OCM-3]
thermodynamic and mechanical stability of the solid state form (polymorphic conversion): thermodynamically and mechanically stable
